Data reported in patent publication US8192962B2, “Processes for detecting toxic substances” (Daikin Industries, Ltd., priority 2001, dated 2012).

Tested on: Energy system protein genes
Assay: DNA chip mRNA expression in yeast, energy system protein genes (Table 4)
Format: cell-based, Saccharomyces cerevisiae S288C
Outline: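 S. cerevisiae S288C grown at 25° C in YPD were exposed in log phase for two hours to one toxic chemical at a growth-inhibiting, non-lethal concentration; untreated cells served as control. Poly(A) mRNA was reverse-transcribed with Cy3/Cy5-dUTP and hybridized to a whole-genome yeast DNA chip at 65° C for over 12 hours; values are fluorescence ratios versus untreated.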

For [Cl][Pb][Cl] [(4), PbCl2], the “The level of expressed mRNA in the presence of chemical substance/The level of expressed mRNA in the absence of chemical substance” value (yeast gene YJR048W) was 1.4, the “The level of expressed mRNA in the presence of chemical substance/The level of expressed mRNA in the absence of chemical substance” value (yeast gene YJR121W, cells incubated two hours with the chemical substance) was 1.0 and the “The level of expressed mRNA in the presence of chemical substance/The level of expressed mRNA in the absence of chemical substance” value (yeast gene YJR155W) was 2.5. For the same compound, the “The level of expressed mRNA in the presence of chemical substance/The level of expressed mRNA in the absence of chemical substance” value (yeast gene YKL016C, cells incubated two hours with the chemical substance) was 1.7, the “The level of expressed mRNA in the presence of chemical substance/The level of expressed mRNA in the absence of chemical substance” value (yeast gene YKL060C, cells incubated two hours with the chemical substance) was 1.0 and the “The level of expressed mRNA in the presence of chemical substance/The level of expressed mRNA in the absence of chemical substance” value (yeast gene YKL141W, cells incubated two hours with the chemical substance) was 1.7. The “The level of expressed mRNA in the presence of chemical substance/The level of expressed mRNA in the absence of chemical substance” value (yeast gene YKL148C, cells incubated two hours with the chemical substance) was 0.7, the “The level of expressed mRNA in the presence of chemical substance/The level of expressed mRNA in the absence of chemical substance” value (yeast gene YKR009C, cells incubated two hours with the chemical substance) was 0.9 and the “The level of expressed mRNA in the presence of chemical substance/The level of expressed mRNA in the absence of chemical substance” value (yeast gene YKR058W, cells incubated two hours with the chemical substance, 25° C., YPD medium) was 1.9. For the same compound, the “The level of expressed mRNA in the presence of chemical substance/The level of expressed mRNA in the absence of chemical substance” value (yeast gene YKR097W) was 3.3, the “The level of expressed mRNA in the presence of chemical substance/The level of expressed mRNA in the absence of chemical substance” value (yeast gene YLL041C, cells incubated two hours with the chemical substance) was 1.0 and the “The level of expressed mRNA in the presence of chemical substance/The level of expressed mRNA in the absence of chemical substance” value (yeast gene YLR038C, cells incubated two hours with the chemical substance) was 2.1. The “The level of expressed mRNA in the presence of chemical substance/The level of expressed mRNA in the absence of chemical substance” value (yeast gene YLR044C, cells incubated two hours with the chemical substance) was 0.9, the “The level of expressed mRNA in the presence of chemical substance/The level of expressed mRNA in the absence of chemical substance” value (yeast gene YLR134W, cells incubated two hours with the chemical substance) was 0.8 and the “The level of expressed mRNA in the presence of chemical substance/The level of expressed mRNA in the absence of chemical substance” value (yeast gene YLR258W, cells incubated two hours with the chemical substance) was 3.5. The “The level of expressed mRNA in the presence of chemical substance/The level of expressed mRNA in the absence of chemical substance” value (yeast gene YLR284C, cells incubated two hours with the chemical substance) was 1.9, the “The level of expressed mRNA in the presence of chemical substance/The level of expressed mRNA in the absence of chemical substance” value (yeast gene YLR295C, cells incubated two hours with the chemical substance, 25° C., YPD medium) was 1.7 and the “The level of expressed mRNA in the presence of chemical substance/The level of expressed mRNA in the absence of chemical substance” value (yeast gene YLR304C, cells incubated two hours with the chemical substance) was 0.7. For the same compound, the “The level of expressed mRNA in the presence of chemical substance/The level of expressed mRNA in the absence of chemical substance” value (yeast gene YLR345W) was 1.2, the “The level of expressed mRNA in the presence of chemical substance/The level of expressed mRNA in the absence of chemical substance” value (yeast gene YLR354C, cells incubated two hours with the chemical substance) was 1.5 and the “The level of expressed mRNA in the presence of chemical substance/The level of expressed mRNA in the absence of chemical substance” value (yeast gene YLR377C, cells incubated two hours with the chemical substance) was 1.2. For the same compound, the “The level of expressed mRNA in the presence of chemical substance/The level of expressed mRNA in the absence of chemical substance” value (yeast gene YLR395C, cells incubated two hours with the chemical substance) was 1.9, the “The level of expressed mRNA in the presence of chemical substance/The level of expressed mRNA in the absence of chemical substance” value (yeast gene YML087C) was 2.5 and the “The level of expressed mRNA in the presence of chemical substance/The level of expressed mRNA in the absence of chemical substance” value (yeast gene YML120C, cells incubated two hours with the chemical substance) was 1.9. For the same compound, the “The level of expressed mRNA in the presence of chemical substance/The level of expressed mRNA in the absence of chemical substance” value (yeast gene YML129C, cells incubated two hours with the chemical substance) was 1.2, the “The level of expressed mRNA in the presence of chemical substance/The level of expressed mRNA in the absence of chemical substance” value (yeast gene YMR073C, cells incubated two hours with the chemical substance) was 1.5 and the “The level of expressed mRNA in the presence of chemical substance/The level of expressed mRNA in the absence of chemical substance” value (yeast gene YMR118C) was 1.6. The “The level of expressed mRNA in the presence of chemical substance/The level of expressed mRNA in the absence of chemical substance” value (yeast gene YMR205C, cells incubated two hours with the chemical substance) was 0.8, the “The level of expressed mRNA in the presence of chemical substance/The level of expressed mRNA in the absence of chemical substance” value (yeast gene YMR261C, cells incubated two hours with the chemical substance) was 0.8 and the “The level of expressed mRNA in the presence of chemical substance/The level of expressed mRNA in the absence of chemical substance” value (yeast gene YMR267W, cells incubated two hours with the chemical substance, 25° C., YPD medium) was 0.9. For the same compound, the “The level of expressed mRNA in the presence of chemical substance/The level of expressed mRNA in the absence of chemical substance” value (yeast gene YMR323W, cells incubated two hours with the chemical substance) was 1.1, the “The level of expressed mRNA in the presence of chemical substance/The level of expressed mRNA in the absence of chemical substance” value (yeast gene YNL071W) was 1.5 and the “The level of expressed mRNA in the presence of chemical substance/The level of expressed mRNA in the absence of chemical substance” value (yeast gene YNL202W, cells incubated two hours with the chemical substance) was 1.7. For the same compound, the “The level of expressed mRNA in the presence of chemical substance/The level of expressed mRNA in the absence of chemical substance” value (yeast gene YNL241C) was 1.0, the “The level of expressed mRNA in the presence of chemical substance/The level of expressed mRNA in the absence of chemical substance” value (yeast gene YNL331C) was 1.0 and the “The level of expressed mRNA in the presence of chemical substance/The level of expressed mRNA in the absence of chemical substance” value (yeast gene YOL086C, cells incubated two hours with the chemical substance) was 1.1. For the same compound, the “The level of expressed mRNA in the presence of chemical substance/The level of expressed mRNA in the absence of chemical substance” value (yeast gene YOL165C) was 0.9, the “The level of expressed mRNA in the presence of chemical substance/The level of expressed mRNA in the absence of chemical substance” value (yeast gene YOR142W, cells incubated two hours with the chemical substance) was 1.0 and the “The level of expressed mRNA in the presence of chemical substance/The level of expressed mRNA in the absence of chemical substance” value (yeast gene YOR178C, cells incubated two hours with the chemical substance) was 2.3. For the same compound, the “The level of expressed mRNA in the presence of chemical substance/The level of expressed mRNA in the absence of chemical substance” value (yeast gene YOR388C, cells incubated two hours with the chemical substance) was 4.7, the “The level of expressed mRNA in the presence of chemical substance/The level of expressed mRNA in the absence of chemical substance” value (yeast gene YPL031C, cells incubated two hours with the chemical substance) was 0.8 and the “The level of expressed mRNA in the presence of chemical substance/The level of expressed mRNA in the absence of chemical substance” value (yeast gene YPL061W, cells incubated two hours with the chemical substance) was 1.3. The “The level of expressed mRNA in the presence of chemical substance/The level of expressed mRNA in the absence of chemical substance” value (yeast gene YPL088W) was 2.5, the “The level of expressed mRNA in the presence of chemical substance/The level of expressed mRNA in the absence of chemical substance” value (yeast gene YPL171C) was 2.2 and the “The level of expressed mRNA in the presence of chemical substance/The level of expressed mRNA in the absence of chemical substance” value (yeast gene YPL240C) was 0.9. For the same compound, the “The level of expressed mRNA in the presence of chemical substance/The level of expressed mRNA in the absence of chemical substance” value (yeast gene YPL262W, cells incubated two hours with the chemical substance) was 1.2, the “The level of expressed mRNA in the presence of chemical substance/The level of expressed mRNA in the absence of chemical substance” value (yeast gene YPL275W, cells incubated two hours with the chemical substance) was 5.1 and the “The level of expressed mRNA in the presence of chemical substance/The level of expressed mRNA in the absence of chemical substance” value (yeast gene YPL276W, cells incubated two hours with the chemical substance) was 3.0. For the same compound, the “The level of expressed mRNA in the presence of chemical substance/The level of expressed mRNA in the absence of chemical substance” value (yeast gene YPR048W, cells incubated two hours with the chemical substance) was 1.1 and the “The level of expressed mRNA in the presence of chemical substance/The level of expressed mRNA in the absence of chemical substance” value (yeast gene YPR184W, cells incubated two hours with the chemical substance) was 2.2.
